According to article PMC8659278, “Dianthiamides A–E, Proline-Containing Orbitides from Dianthus chinensis” (Molecules, 2021):
Where two headings read alike, the source gives them in different places. Peptide text beside a SMILES is read from it.

System: human non-small cell lung cancer A549 cells
Assay: MTT cytotoxicity assay, A549 cells
Format: cell-based
Procedure: Human non-small cell lung cancer A549 and human stomach adenocarcinoma MKN-28 cells were purchased from the American Type Culture Collection (ATCC; Manassas, VA, USA). […] Docetaxel was used as a positive control with an IC50 value of 0.08 μM on A549 cells.

| Compound | IC50 (human, 48 h) [µM] | IC50 (Homo sapiens, A549, MTT assay, 5 × 10^3 cells/well, 48 h incubation, tested 5–200 µM, absorbance 540 nm, read-out: cytotoxic activity against A549 cell line, IC50) [µM] |
| --- | --- | --- |
| CC[C@H](C)[C@@H]1NC(=O)[C@@H]2CCCN2C(=O)[C@@H]2CCCN2C(=O)[C@H](CC(C)C)NC(=O)[C@H](Cc2ccccc2)NC(=O)CNC(=O)[C@H](CC(N)=O)NC1=O [dianthiamide A, cyclo-(Gly^1-L-Phe^2-L-Leu^3-L-trans-Proa^4-L-cis-Prob^5-L-Ile^6-L-Asn^7)] (cyclo(GFLPPIN)) | 47.9 | – |
| CC(=O)O[C@@]12CO[C@@H]1C[C@H](O)[C@@]1(C)C(=O)[C@H](O)C3=C(C)[C@@H](OC(=O)[C@H](O)[C@@H](NC(=O)OC(C)(C)C)c4ccccc4)C[C@@](O)([C@@H](OC(=O)c4ccccc4)[C@H]21)C3(C)C [docetaxel] | – | 0.08 |
